Active and inactive are the calls of the source. The calls are words filed in the database; no cut-off is given here.
What was measured:
[1] = target: T1, Tubulin alpha (Homo sapiens) (UniProt P0DPH7+P68366+Q71U36+P68363+Q9BQE3+Q6PEY2+A6NHL2+Q9NY65); test: Induction of alpha-tubulin degradation in human HeLa cells incubated for 48 hrs by immunoblotting analysis; format: cell-based; details: dose 0.1-1 µM
HeLa [2] = test: Cytotoxicity against human HeLa cells assessed as decrease in cell viability cultured in chloride-free extracellular medium at 0.05 to 5 uM incubated for 12 hrs; format: functional, cell-based; details: dose 0.05-5 µM
HeLa [3] = test: Cytotoxicity against human HeLa cells assessed as decrease in cell viability at 0.01 to 10 uM pretreated with Z-VAD-FMK followed by compound addition by MTT assay; format: functional, cell-based; details: dose 0.01-10 µM
HeLa [4] = test: Induction of lipid peroxidation in human HeLa cells by flow cytometry; format: functional, cell-based; details: dose 0.1-1 µM
Chloride [5] = test: Binding affinity to chloride anions assessed as chloride efflux in egg-yolk L-alpha-phosphatidylcholine liposome model harboring intravesicular NaCl/extravesicular NaNO3
[6] = target: Tubulin beta (Homo sapiens) (UniProt P68371+Q9H4B7+Q13509+P04350+Q3ZCM7+P07437+Q13885+Q9BVA1+Q9BUF5+A6NNZ2); test: Induction of beta-tubulin degradation in human HeLa cells incubated for 48 hrs by immunoblotting analysis; format: cell-based; details: dose 0.1-1 µM
[7] = Toxicity in male Balb/C nude mouse xenografted with human HeLa cells assessed as body weight change at 20 mg/kg, ip administered on every 2 days measured after 18 days; format: organism-based; details: in vivo, 432 h, time 18 day
HeLa [8] = test: Antitumor activity against human HeLa cells xenografted in male Balb/C nude mouse assessed as cell death at 10 to 20 mg/kg, ip administered on every 2 days measured after 18 days by TUNEL immunofluorescence analysis; format: functional, organism-based; details: dose 10-20 mg/kg, time 18.0 day
HeLa [9] = test: Effect on p53 pathway in human HeLa cells at 10 uM incubated for 48 hrs by KEGG analysis; format: functional, cell-based
HeLa [10] = test: Induction of beta III-tubulin degradation in human HeLa cells incubated for 48 hrs by immunoblotting analysis; format: cell-based; details: dose 0.1-1 µM
HeLa [11] = test: Antitumor activity against human HeLa cells xenografted in male Balb/C nude mouse assessed as decrease in beta III-tubulin level at 10 to 20 mg/kg, ip administered on every 2 days measured after 18 days by immunoblotting analysis; format: functional, organism-based; details: dose 10-20 mg/kg, time 18.0 day
HeLa [12] = test: In vivo induction of ferroptosis in human HeLa cells xenografted in male Balb/C nude mouse assessed as increase in cleaved PARP level administered intraperitoneally on every 2 days measured after 18 days by immunoblotting analysis; format: functional, organism-based; details: dose 10-20 mg/kg, route ip, time 18.0 day
[13] = AUC (0 to t) in male CD-1 mouse at 1 mg/kg, ip measured for 0.083 to 48 hrs by HPLC/MS/MS analysis; format: ADME, organism-based; details: in vivo, time 0.083-48 hrs
HeLa [14] = test: Induction of mitochondrial membrane permeability in human HeLa cells assessed as green fluorescence at 0.1 uM incubated for 24 hrs by JC-1 staining based analysis (reference value: 1.5 %); format: functional
HeLa [15] = test: Induction of lipid peroxidation in human HeLa cells assessed as increase in green fluorescence at 0.1 to 1 uM incubated for 24 hrs by C11-BODIPY-581/591 probe based analysis; format: functional, cell-based; details: dose 0.1-1 µM
Chloride [16] = test: Binding affinity to chloride anions assessed as transport of chloride anions across bulky nitrobenzene membrane in U-shaped tube harboring NaCl in donor phase and NaNO3 in receiving phase at 1 mM measured for 12 hrs by chloride ion selective electrode technique
[17] = MRT (0 to infinity) in male CD-1 mouse at 1 mg/kg, ip measured for 0.083 to 48 hrs by HPLC/MS/MS analysis; format: ADME, organism-based; details: in vivo, time 0.083-48 hrs
HeLa [18] = test: Induction of ferroptosis in human HeLa cells assessed as increase in PARP-1 cleavage at 0.1 to 1 uM incubated for 24 hrs by immunoblotting analysis; format: functional, cell-based; details: dose 0.1-1 µM
Chloride [19] = test: Binding affinity to chloride anions in human HeLa cells assessed as decrease in orange fluorescence in cytoplasm at 5 uM incubated for 6 hrs by AO staining based analysis relative to control; format: cell-based; design: scale not given: the % may be the effect or the level left
HeLa [20] = test: In vivo induction of ferroptosis in human HeLa cells xenografted in male Balb/C nude mouse assessed as increase in cleaved caspase-3 level administered intraperitoneally on every 2 days measured after 18 days by immunoblotting analysis; format: functional, organism-based; details: dose 10-20 mg/kg, route ip, time 18.0 day
[21] = MRT (0 to t) in male CD-1 mouse at 1 mg/kg, iv measured for 0.083 to 48 hrs by HPLC/MS/MS analysis; format: ADME, organism-based; details: in vivo, time 0.083-48 hrs
Chloride [22] = test: Binding affinity to chloride anions using tetrabutylammonium chloride salt assessed as association constant by 1H NMR spectroscopy
[23] = target: T1, Tubulin alpha (Homo sapiens); test: Induction of alpha-tubulin degradation in human HeLa cells at 1 uM preincubated with MG132 followed by compound addition measured after 24 hrs by immunoblotting analysis; format: cell-based
HeLa [24] = test: Induction of ferroptosis in human HeLa cells assessed as increase in Bad level at 0.1 to 1 uM incubated for 24 hrs by immunoblotting analysis; format: functional, cell-based; details: dose 0.1-1 µM
MCF7 = test: Cytotoxicity against human MCF7 cells incubated for 48 hrs by MTT assay; format: functional, cell-based; details: MCF7, 48 h
Chloride [25] = test: Binding affinity to chloride anions assessed as chloride efflux in egg-yolk L-alpha-phosphatidylcholine liposome model harboring intravesicular CsCl/extravesicular NaNO3

## Fc1cc(-c2nc3c(C(F)(F)F)cc(C(F)(F)F)cc3[nH]2)cc(-c2nc3c(C(F)(F)F)cc(C(F)(F)F)cc3[nH]2)c1
[1]
  Activity: Dose-dependent-effect
HeLa [2]
  Activity: inactive
HeLa [3]
  Activity: Not active; Z-Vad-Fmk Exhibited Partial Protection For Cells
HeLa [4]
  Activity: Dose-dependent-effect
Chloride [5]
  Activity: Active
[6]
  Activity: Dose-dependent-effect
[7]
  Activity: Non-toxic
HeLa [8]
  Activity: Active
HeLa [9]
  Activity: Active
HeLa [10]
  Activity: Dose-dependent-effect
HeLa [11]
  Activity: Active
HeLa [12]
  Activity: Dose-dependent-effect
[13]
  AUC(0-t): 3850 ng·h/mL
HeLa [14]
  Activity: 9.5%
HeLa [15]
  Activity: Active
Chloride [16]
  Activity: Active
[17]
  MRT inf: 14.8 h
HeLa [18]
  Activity: Active
Chloride [19]
  Activity: 100%
HeLa [20]
  Activity: Dose-dependent-effect
[21]
  MRT last: 2.64 h
Chloride [22]
  Ka: 1.48 10^3/M
[23]
  Activity: inactive
HeLa [24]
  Activity: Active
MCF7
  IC50: 770 nM
Chloride [25]
  Activity: Active

— ChEMBL document CHEMBL6178013, “Ferroptosis of Cancer Cells via Tubulin Degradation and Mitochondrial Dysfunction: A Novel Mechanism of Anticancer Effect for Small-Molecule Anion Transporters” (J Med Chem, 2025)
